Source: patent publication US20230255953A1, “USE OF ROLUPERIDONE IN PREVENTING RELAPSE IN SCHIZOPHRENIA PATIENTS” (Minerva Neurosciences, Inc., priority 2022, published 2023)

System: patients with negative symptoms of schizophrenia
Assay: Integrated analysis of Studies #1 and #2 (pooled ITT): PANSS-derived scores (NSFS, total, positive and negative subscales), DB, OL and whole study
Format: in vivo, human
Design: key to NSFS Score change from Baseline, Median: change from Baseline in PANSS NSFS points; higher score = more severe
Conditions: for NSFS Score change from Baseline, LS mean (SE) / NSFS Score change from Baseline, Mean (SD) / NSFS Score change from Baseline, Median / NSFS Score, Difference (95% CI) in LS mean (vs placebo) / PANSS Negative Subscale Score change from Baseline, LS mean (SE) / PANSS Negative Subscale Score change from Baseline, Mean (SD) / PANSS Negative Subscale Score change from Baseline, Median / PANSS Negative Subscale Score, Difference (95% CI) in LS mean (vs placebo) / PANSS Total Score change from Baseline, LS mean (SE) / PANSS Total Score change from Baseline, Mean (SD) / PANSS Total Score change from Baseline, Median / PANSS Total Score, Difference (95% CI) in LS mean (vs placebo): DB
Protocol: The primary integrated analysis of the efficacy of Roluperidone compared with placebo for the treatment of negative symptoms of schizophrenia is based on the change from Baseline in the PANSS Marder's negative symptoms factor score (in this document referred to as NSFS) to Week 12. Efficacy is also supported by the analysis of change from Baseline in the PSP Total score and the CGI-S to Week 12.
The PANSS was assessed at the time points described in Table 4.
The PANSS-derived endpoints used in these studies and the integrated analyses are described in Table 5A and a summary of the individual PANSS items used by physicians and clinicians to measure the severity of the symptoms in a schizophrenia patient is provided in Table 5B. The scale is divided into three parts, a positive scale, which provides a “PANSS positive subscore”, a negative scale, which provides a “PANSS negative subscore”, and general psychopathology scale. The sum of these three parts provides a PANSS total score, which ranges from 30 to 210 (where higher scores indicate more severe symptoms). (See Kay, S. R., et al. “The positive and negative syndrome scale (PANSS) for schizophrenia,” Schizophr Bulletin, 13(2), 261-276 (1987) and Gopal, S., et al. “Improvement of Negative Symptoms in Schizophrenia with Paliperidone Palmitate 1-Month and 3-Month Long-Acting Injectables: Results from a Phase 3 Non-Inferiority Study” Neuropsychiatric Disease and Treatment, 681-690, DOI: 10.2147/NDT.5226296, both of which are incorporated by reference.)
The Efficacy data from Study Nos. 1 and 2 were pooled. The majority of patients in the pooled ITT population completed the DB period (502 patients overall, 66.3%), with similar rates in each treatment group (placebo: 69.8%, 32 mg Roluperidone: 65.3%, and 64 mg Roluperidone: 63.8%) (Table 12). The majority (62.7%) of those who completed the DB period entered the OL period. The most common reason for discontinuation during the DB period among patients overall was withdrawal of consent (15.6%), followed by adverse events (7.3%) and lack of efficacy (5.4%) (Table 12). […] Approximately twice as many patients in the Roluperidone groups (32 mg: 8.5%; 64 mg: 9.1%) discontinued due to adverse events compared with patients in the placebo group (4.3%). More patients in the placebo group discontinued due to lack of efficacy (6.7%) than in the Roluperidone groups (32 mg: 4.4%; 64 mg: 5.1%). The low number of patients who discontinued due to lack of efficacy or withdrawal of consent probably reflects a low level of worsening of positive symptoms.
The integrated analysis supporting the efficacy of Roluperidone as a treatment for the negative symptoms of schizophrenia in adults is presented below.

In the case of “1H-Isoindol-1-one,2-[ [1-[2-(4-fluorophenyl)-2-oxoethyl]-4-piperidinyl]methyl]-2,3-dihydro-, hydrochloride, hydrate (1:1:2) [Roluperidone]”, the “Mean NSFS score improvements, persistence in OL period” value (32 mg and 64 mg groups, OL period incl. 2 weeks after end of treatment, pooled) is reported as “sustained and continued during the OL period”, the “NSFS Score change from Baseline, LS mean (SE)” value (shortened to “NSFS Score change … (SE)”) (32 mg, Week 2, pooled ITT) is reported as −1.1 (0.15) and the “NSFS Score change from Baseline, Mean (SD)” value (from here on “NSFS Score change … (SD)”) (32 mg, Week 2, pooled ITT) is reported as −1.1 (2.15). The “NSFS Score change from Baseline, Median” value (32 mg, Week 2, pooled ITT) was −1.0, the “NSFS Score, Difference (95% CI) in LS mean (vs placebo)” value (from here on “NSFS Score, Difference (95% CI)”) (32 mg, Week 2, pooled ITT) was −0.2 and the “PANSS Negative Subscale Score change from Baseline, LS mean (SE)” value (shortened to “PANSS Negative Subscale Score change … (SE)”) (32 mg, Week 2, pooled ITT) was −1.2 (0.14). For the same substance, the “PANSS Negative Subscale Score change from Baseline, Mean (SD)” value (32 mg, Week 2, pooled ITT) was −1.2 (2.11), the “PANSS Negative Subscale Score change from Baseline, Median” value (32 mg, Week 2, pooled ITT) was −1.0 and the “PANSS Negative Subscale Score, Difference (95% CI) in LS mean (vs placebo)” value (32 mg, Week 2, pooled ITT) was −0.1. For the same substance, the “PANSS Total Score change from Baseline, LS mean (SE)” value (“PANSS Total Score change … (SE)” for short) (32 mg, Week 2, pooled ITT) was −1.7 (0.44), the “PANSS Total Score change from Baseline, Mean (SD)” value (“PANSS Total Score change … (SD)” below) (32 mg, Week 2, pooled ITT) was −1.8 (6.62) and the “PANSS Total Score change from Baseline, Median” value (32 mg, Week 2, pooled ITT) was −2.0. The “PANSS Total Score, Difference (95% CI) in LS mean (vs placebo)” value (“PANSS Total Score, Difference (95% CI)” below) (32 mg, Week 2, pooled ITT) was −0.4, the “PANSS Positive Subscale Score change from Baseline, LS mean (SE)” value (“PANSS Positive Subscale Score change … (SE)” for short) (32 mg, Week 2, pooled ITT) was 0.3 (0.17) and the “PANSS Positive Subscale Score change from Baseline, Mean (SD)” value (32 mg, Week 2, pooled ITT) was 0.2 (2.71). The “PANSS Positive Subscale Score change from Baseline, Median” value (32 mg, Week 2, pooled ITT) was 0.0, the “PANSS Positive Subscale Score, Difference (95% CI) in LS mean (vs placebo)” value (32 mg, Week 2, pooled ITT) was 0.3 and the “NSFS Score change … (SE)” value (32 mg, Week 4, pooled ITT) was −2.0 (0.19). For the same substance, the “NSFS Score change … (SD)” value (32 mg, Week 4, pooled ITT) was −2.2 (2.53), the “NSFS Score change from Baseline, Median” value (32 mg, Week 4, pooled ITT) was −2.0 and the “NSFS Score, Difference (95% CI)” value (32 mg, Week 4, pooled ITT) was −0.7. The “PANSS Negative Subscale Score change … (SE)” value (32 mg, Week 4, pooled ITT) was −2.1 (0.19), the “PANSS Negative Subscale Score change from Baseline, Mean (SD)” value (32 mg, Week 4, pooled ITT) was −2.3 (2.67) and the “PANSS Negative Subscale Score change from Baseline, Median” value (32 mg, Week 4, pooled ITT) was −2.0. The “PANSS Negative Subscale Score, Difference (95% CI) in LS mean (vs placebo)” value (32 mg, Week 4, pooled ITT) was −0.6, the “PANSS Total Score change … (SE)” value (32 mg, Week 4, pooled ITT) was −3.6 (0.53) and the “PANSS Total Score change … (SD)” value (32 mg, Week 4, pooled ITT) was −4.4 (7.09). For the same substance, the “PANSS Total Score change from Baseline, Median” value (32 mg, Week 4, pooled ITT) was −4.0, the “PANSS Total Score, Difference (95% CI)” value (32 mg, Week 4, pooled ITT) was −1.6 and the “PANSS Positive Subscale Score change … (SE)” value (32 mg, Week 4, pooled ITT) was −0.1 (0.18). The “PANSS Positive Subscale Score change from Baseline, Mean (SD)” value (32 mg, Week 4, pooled ITT) was −0.4 (2.49), the “PANSS Positive Subscale Score change from Baseline, Median” value (32 mg, Week 4, pooled ITT) was 0.0 and the “PANSS Positive Subscale Score, Difference (95% CI) in LS mean (vs placebo)” value (32 mg, Week 4, pooled ITT) was −0.3. The “NSFS Score change … (SE)” value (32 mg, Week 8, pooled ITT) was −3.0 (0.23), the “NSFS Score change … (SD)” value (32 mg, Week 8, pooled ITT) was −3.2 (3.21) and the “NSFS Score change from Baseline, Median” value (32 mg, Week 8, pooled ITT) was −3.0. For the same substance, the “NSFS Score, Difference (95% CI)” value (32 mg, Week 8, pooled ITT) was −0.8, the “PANSS Negative Subscale Score change … (SE)” value (32 mg, Week 8, pooled ITT) was −3.1 (0.24) and the “PANSS Negative Subscale Score change from Baseline, Mean (SD)” value (32 mg, Week 8, pooled ITT) was −3.2 (3.46). For the same substance, the “PANSS Negative Subscale Score change from Baseline, Median” value (32 mg, Week 8, pooled ITT) was −3.0, the “PANSS Negative Subscale Score, Difference (95% CI) in LS mean (vs placebo)” value (32 mg, Week 8, pooled ITT) was −0.7 and the “PANSS Total Score change … (SE)” value (32 mg, Week 8, pooled ITT) was −4.9 (0.66). The “PANSS Total Score change … (SD)” value (32 mg, Week 8, pooled ITT) was −6.2 (7.89), the “PANSS Total Score change from Baseline, Median” value (32 mg, Week 8, pooled ITT) was −6.0 and the “PANSS Total Score, Difference (95% CI)” value (32 mg, Week 8, pooled ITT) was −1.7. For the same substance, the “PANSS Positive Subscale Score change … (SE)” value (32 mg, Week 8, pooled ITT) was −0.1 (0.20), the “PANSS Positive Subscale Score change from Baseline, Mean (SD)” value (32 mg, Week 8, pooled ITT) was −0.4 (2.50) and the “PANSS Positive Subscale Score change from Baseline, Median” value (32 mg, Week 8, pooled ITT) was 0.0. The “PANSS Positive Subscale Score, Difference (95% CI) in LS mean (vs placebo)” value (32 mg, Week 8, pooled ITT) was −0.3, the “NSFS Score change … (SE)” value (32 mg, Week 12, pooled ITT) was −3.5 (0.26) and the “NSFS Score change … (SD)” value (32 mg, Week 12, pooled ITT) was −3.6 (3.08). The “NSFS Score change from Baseline, Median” value (32 mg, Week 12, pooled ITT) was −4.0, the “NSFS Score, Difference (95% CI)” value (32 mg, Week 12, pooled ITT) was −0.8 and the “PANSS Negative Subscale Score change … (SE)” value (32 mg, Week 12, pooled ITT) was −3.6 (0.27). The “PANSS Negative Subscale Score change from Baseline, Mean (SD)” value (32 mg, Week 12, pooled ITT) was −3.6 (3.37), the “PANSS Negative Subscale Score change from Baseline, Median” value (32 mg, Week 12, pooled ITT) was −3.0 and the “PANSS Negative Subscale Score, Difference (95% CI) in LS mean (vs placebo)” value (32 mg, Week 12, pooled ITT) was −0.7. For the same substance, the “PANSS Total Score change … (SE)” value (32 mg, Week 12, pooled ITT) was −5.5 (0.71), the “PANSS Total Score change … (SD)” value (32 mg, Week 12, pooled ITT) was −6.9 (7.77) and the “PANSS Total Score change from Baseline, Median” value (32 mg, Week 12, pooled ITT) was −7.0. For the same substance, the “PANSS Total Score, Difference (95% CI)” value (32 mg, Week 12, pooled ITT) was −1.9, the “NSFS Emotional Experience Score, Change from Baseline (LS Means [SEM])” value (32 mg, Week 12, ITT) was −1.3 (0.13) and the “NSFS Emotional Expression Score, Change from Baseline (LS Means [SEM])” value (32 mg, Week 12, ITT) was −2.2 (0.16). The “NSFS, Change from Baseline (LS Means [SEM])” value (32 mg, Week 12, ITT) was −3.5 (0.26), the “PANSS General Psychopathology Subscale, Change from Baseline (LS Means [SEM])” value (32 mg, Week 12, ITT) was −2.0 (0.37) and the “PANSS Negative Symptoms Subscale, Change from Baseline (LS Means [SEM])” value (32 mg, Week 12, ITT) was −3.6 (0.27). The “PANSS Positive Symptoms Subscale, Change from Baseline (LS Means [SEM])” value (32 mg, Week 12, ITT) was −0.1 (0.21), the “PANSS Total Score, Change from Baseline (LS Means [SEM])” value (32 mg, Week 12, ITT) was −5.5 (0.71) and the “Patients with high improvement in NSFS (magnitude of change >8)” value (32 mg, Week 12, pooled) was 5%. The “Patients with moderate improvement in NSFS (magnitude of change 6-8)” value (32 mg, Week 12, pooled) was 18%, the “Patients with moderate or high improvement in NSFS, total” value (32 mg, Week 12, pooled) was 23% and the “NSFS, LS mean decrease from Baseline compared with placebo” value (32 mg, Week 12, pooled ITT) was −3.5. For the same substance, the “PANSS Positive Subscale Score change … (SE)” value (32 mg, Week 12, pooled ITT) was −0.1 (0.21), the “PANSS Positive Subscale Score change from Baseline, Mean (SD)” value (32 mg, Week 12, pooled ITT) was −0.6(2.37) and the “PANSS Positive Subscale Score change from Baseline, Median” value (32 mg, Week 12, pooled ITT) was 0.0. For the same substance, the “PANSS Positive Subscale Score, Difference (95% CI) in LS mean (vs placebo)” value (32 mg, Week 12, pooled ITT) was −0.3 and the “PANSS negative subscale score, LS mean change from Baseline compared with placebo” value (32 mg, Week 12, pooled ITT) was −0.7.
